The target in the test is T1, plant Photosystem II (PSII), D1 protein QB site, pea (Lathyrus oleraceus, UniProt P06585).
T1 construct: gene psbA; native D1 within whole PSII complex (D1/D2 reaction centre) in isolated thylakoid membranes from 4-week-old pea leaves; no tag, not purified further
Nature of the test: DPIP photoreduction (Hill reaction, […] nm) in isolated thylakoid membranes, Langmuir isotherm fit. It is filed as biochemical. Conditions: pH 7.2, 100 µM DPIP, 5 mM NH4Cl, 5 mM MgCl2, 15 µg/mL Chl, white light 500 µmol photons m^-2 s^-1, 10 min dark preincubation at room temperature, competitive with plastoquinone, read-out: DPIP Photoreduction / I50.
Turning to `CCNc1nc(Cl)nc(NC(C)(C)C)n1` [Terbuthylazine], the IC50 is 110 nM. Take `CC(C)N1C(=O)c2ccccc2NS1(=O)=O` [Bentazon]: the IC50 was found to be 6160 nM. Consider `CSc1nnc(C(C)(C)C)c(=O)n1N` [Metribuzin], for which the IC50 stood at 156 nM. Consider `CN(C)C(=O)Nc1ccc(Cl)c(Cl)c1` [Diuron], for which the IC50 stood at 71.8 nM.

The record behind these values is publication PMC8398153, “Binding Properties of Photosynthetic Herbicides with the QB Site of the D1 Protein in Plant Photosystem II: A Combined Functional and Molecular Docking Study” (Plants, 2021).
